Source: patent US10168342B2, “Lipid probes and uses thereof” (THE SCRIPPS RESEARCH INSTITUTE, priority 2015, dated 2019)
Where two headings read alike, the source gives them in different places.

Tests used:
[1] = target: AEA-DA lipid probe targets in Neuro2a cells (Mus musculus, UniProt P47740)
[2] = target: T1, AEA-DA lipid probe targets in Neuro2a cells (Mus musculus, UniProt P55096)
T1 sequence (P55096 1-659): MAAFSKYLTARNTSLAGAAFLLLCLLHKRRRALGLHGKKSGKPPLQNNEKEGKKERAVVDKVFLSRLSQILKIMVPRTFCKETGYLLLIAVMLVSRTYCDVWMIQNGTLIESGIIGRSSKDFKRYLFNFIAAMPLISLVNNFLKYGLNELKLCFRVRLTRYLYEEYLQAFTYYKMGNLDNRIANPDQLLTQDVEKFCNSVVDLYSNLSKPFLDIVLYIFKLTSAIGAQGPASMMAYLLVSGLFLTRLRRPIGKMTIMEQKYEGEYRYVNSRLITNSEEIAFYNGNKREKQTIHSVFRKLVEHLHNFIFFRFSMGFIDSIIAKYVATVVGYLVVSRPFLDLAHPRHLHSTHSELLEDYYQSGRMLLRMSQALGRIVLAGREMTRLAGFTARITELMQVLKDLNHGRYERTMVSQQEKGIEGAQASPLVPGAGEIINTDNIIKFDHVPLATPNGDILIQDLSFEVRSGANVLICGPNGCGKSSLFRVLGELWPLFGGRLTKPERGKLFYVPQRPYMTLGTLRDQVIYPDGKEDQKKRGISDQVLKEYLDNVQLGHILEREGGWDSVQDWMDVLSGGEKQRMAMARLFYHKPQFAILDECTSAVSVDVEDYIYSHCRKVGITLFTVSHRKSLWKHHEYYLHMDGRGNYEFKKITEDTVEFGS

[3] = target: AEA-DA lipid probe targets in Neuro2a cells (Mus musculus, UniProt P60229)
[4] = target: T2, AEA-DA lipid probe targets in Neuro2a cells (Mus musculus, UniProt Q61595)
T2 sequence (Q61595 1-1327): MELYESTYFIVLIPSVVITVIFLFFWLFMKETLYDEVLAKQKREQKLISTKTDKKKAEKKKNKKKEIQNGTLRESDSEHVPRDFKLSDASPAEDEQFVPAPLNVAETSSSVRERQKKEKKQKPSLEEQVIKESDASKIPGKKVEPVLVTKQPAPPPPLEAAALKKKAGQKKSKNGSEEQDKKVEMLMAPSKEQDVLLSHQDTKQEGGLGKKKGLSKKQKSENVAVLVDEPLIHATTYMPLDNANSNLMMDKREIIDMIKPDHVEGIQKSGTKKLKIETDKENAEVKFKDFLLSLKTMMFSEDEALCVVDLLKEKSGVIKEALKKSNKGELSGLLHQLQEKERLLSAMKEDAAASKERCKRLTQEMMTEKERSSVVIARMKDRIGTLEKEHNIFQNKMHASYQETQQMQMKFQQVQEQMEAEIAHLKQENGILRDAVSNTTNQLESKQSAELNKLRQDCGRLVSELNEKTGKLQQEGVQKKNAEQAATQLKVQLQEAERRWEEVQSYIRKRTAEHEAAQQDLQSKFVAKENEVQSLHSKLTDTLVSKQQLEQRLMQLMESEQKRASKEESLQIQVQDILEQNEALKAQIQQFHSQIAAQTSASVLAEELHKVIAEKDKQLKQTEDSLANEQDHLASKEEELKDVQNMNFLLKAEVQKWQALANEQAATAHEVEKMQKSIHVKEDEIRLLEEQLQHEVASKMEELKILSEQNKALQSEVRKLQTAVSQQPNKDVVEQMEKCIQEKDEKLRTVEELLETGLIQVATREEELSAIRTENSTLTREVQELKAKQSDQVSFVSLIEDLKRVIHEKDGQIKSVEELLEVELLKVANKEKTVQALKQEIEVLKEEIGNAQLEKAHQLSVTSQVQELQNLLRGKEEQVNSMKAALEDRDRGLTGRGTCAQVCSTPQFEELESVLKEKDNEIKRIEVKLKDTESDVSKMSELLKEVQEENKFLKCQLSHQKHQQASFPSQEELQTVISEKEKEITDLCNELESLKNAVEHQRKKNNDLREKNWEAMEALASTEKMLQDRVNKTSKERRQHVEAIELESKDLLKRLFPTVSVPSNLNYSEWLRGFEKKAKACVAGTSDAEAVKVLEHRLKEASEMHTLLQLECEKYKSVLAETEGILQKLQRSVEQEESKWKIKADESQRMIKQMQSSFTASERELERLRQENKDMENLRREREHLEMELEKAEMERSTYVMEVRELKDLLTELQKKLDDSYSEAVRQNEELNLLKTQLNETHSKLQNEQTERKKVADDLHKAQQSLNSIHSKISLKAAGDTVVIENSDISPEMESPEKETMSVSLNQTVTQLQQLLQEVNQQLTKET

[5] = target: T3, AEA-DA lipid probe targets in Neuro2a cells (Mus musculus, UniProt Q8BXV2)
T3 sequence (Q8BXV2 1-253): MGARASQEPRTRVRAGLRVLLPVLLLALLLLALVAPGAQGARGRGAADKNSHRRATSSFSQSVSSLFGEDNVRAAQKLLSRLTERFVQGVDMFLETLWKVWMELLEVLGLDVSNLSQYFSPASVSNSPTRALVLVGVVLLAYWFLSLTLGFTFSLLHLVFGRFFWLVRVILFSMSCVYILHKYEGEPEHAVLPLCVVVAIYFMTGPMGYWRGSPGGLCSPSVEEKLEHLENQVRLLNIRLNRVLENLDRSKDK

[6] = target: AEA-DA lipid probe targets in Neuro2a cells (Mus musculus, UniProt Q8JZU2)
[7] = target: T4, AEA-DA lipid probe targets in Neuro2a cells (Mus musculus, UniProt Q9CPQ8)
T4 sequence (Q9CPQ8 1-103): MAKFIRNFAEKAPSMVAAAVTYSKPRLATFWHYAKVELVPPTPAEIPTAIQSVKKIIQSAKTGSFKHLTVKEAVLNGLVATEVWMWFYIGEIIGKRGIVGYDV

Chain of AEA-DA lipid probe targets in Neuro2a cells (Mus musculus, UniProt Q8JZU2) (Q8JZU2 14-311): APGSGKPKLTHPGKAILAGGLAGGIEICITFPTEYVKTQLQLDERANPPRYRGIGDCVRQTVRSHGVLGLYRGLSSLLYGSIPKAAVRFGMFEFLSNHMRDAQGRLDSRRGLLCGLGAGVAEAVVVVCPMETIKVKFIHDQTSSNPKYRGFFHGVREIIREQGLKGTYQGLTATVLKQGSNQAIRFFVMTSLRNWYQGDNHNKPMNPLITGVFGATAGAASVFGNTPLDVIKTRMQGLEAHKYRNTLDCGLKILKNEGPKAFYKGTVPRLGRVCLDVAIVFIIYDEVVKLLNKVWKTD
Chain of AEA-DA lipid probe targets in Neuro2a cells (Mus musculus, UniProt P47740) (P47740 whole entry): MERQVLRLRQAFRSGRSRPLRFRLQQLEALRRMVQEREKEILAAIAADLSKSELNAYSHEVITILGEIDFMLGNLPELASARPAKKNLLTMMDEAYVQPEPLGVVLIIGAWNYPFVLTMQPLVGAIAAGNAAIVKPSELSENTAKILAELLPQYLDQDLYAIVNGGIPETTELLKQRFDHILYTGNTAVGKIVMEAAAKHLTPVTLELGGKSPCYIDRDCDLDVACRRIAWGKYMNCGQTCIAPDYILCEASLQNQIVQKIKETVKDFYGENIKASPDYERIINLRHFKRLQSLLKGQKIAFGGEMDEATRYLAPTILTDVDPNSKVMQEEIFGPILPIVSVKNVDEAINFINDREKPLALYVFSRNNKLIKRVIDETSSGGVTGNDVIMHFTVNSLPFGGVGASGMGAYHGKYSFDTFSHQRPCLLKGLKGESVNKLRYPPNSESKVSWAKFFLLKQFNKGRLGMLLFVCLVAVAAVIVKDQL
Chain of AEA-DA lipid probe targets in Neuro2a cells (Mus musculus, UniProt P60229) (P60229 whole entry): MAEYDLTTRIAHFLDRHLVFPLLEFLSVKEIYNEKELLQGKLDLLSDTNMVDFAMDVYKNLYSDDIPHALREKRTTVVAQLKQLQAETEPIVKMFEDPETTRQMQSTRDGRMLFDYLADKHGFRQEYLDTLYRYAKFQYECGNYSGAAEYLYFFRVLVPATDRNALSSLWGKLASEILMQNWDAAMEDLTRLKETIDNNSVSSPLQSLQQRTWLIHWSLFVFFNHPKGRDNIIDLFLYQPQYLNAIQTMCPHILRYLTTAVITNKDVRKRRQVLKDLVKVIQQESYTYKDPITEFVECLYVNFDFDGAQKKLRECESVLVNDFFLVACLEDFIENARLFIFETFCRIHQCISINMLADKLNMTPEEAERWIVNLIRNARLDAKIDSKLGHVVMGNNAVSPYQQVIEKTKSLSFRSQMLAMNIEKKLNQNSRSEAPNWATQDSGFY

CCCCC/C=C\C/C=C\C/C=C\C/C=C\CCCC(=O)NCCO [AEA, anandamide, reference compound]
SILAC ratio, Aldh3a2 ([1]; competitor 200 μM): 1.7 | SILAC ratio Abcd3 ([2]; competitor 200 μM): 1.5 | SILAC ratio Eif3e ([3]; competitor 200 μM): 1.2 | SILAC ratio, Ktn1 ([4]; competitor 200 μM): 1.4 | SILAC ratio, Bri3bp ([5]; competitor 200 μM): 2.0 | SILAC ratio Slc25a1 ([6]; competitor 200 μM): 1.2 | SILAC ratio Atp5l ([7]; competitor 200 μM): 1.3

O=C(/C=C/c1cccnc1)NCCCCC1CCN(C(=O)c2ccccc2)CC1 [FK-866, reference compound]
SILAC ratio, Aldh3a2 ([1]; competitor 25 μM): 1.6 | SILAC ratio Abcd3 ([2]; competitor 25 μM): 1.3 | SILAC ratio Eif3e ([3]; competitor 25 μM): 1.1 | SILAC ratio, Ktn1 ([4]; competitor 25 μM): 1.2 | SILAC ratio, Bri3bp ([5]; competitor 25 μM): 1.1 | SILAC ratio Slc25a1 ([6]; competitor 25 μM): 1.2 | SILAC ratio Atp5l ([7]; competitor 25 μM): 1.1

CN1CCN(C(=O)c2c(-c3ccccc3)c3cc([N+](=O)[O-])ccc3n2C)CC1 [KML110, (1-Methyl-5-nitro-3-phenyl-1H-indol-2-yl)(4-methylpiperazin-1-yl)methanone]
SILAC ratio, Aldh3a2 ([1]; competitor 25 μM): 1.4 | SILAC ratio Abcd3 ([2]; competitor 25 μM): 1.2 | SILAC ratio Eif3e ([3]; competitor 25 μM): 1.4 | SILAC ratio, Bri3bp ([5]; competitor 25 μM): 1.6 | SILAC ratio Slc25a1 ([6]; competitor 25 μM): 1.2 | SILAC ratio Atp5l ([7]; competitor 25 μM): 1.2

CN1CCN(C(=O)c2[nH]c3ccc([N+](=O)[O-])cc3c2-c2ccccc2)CC1 [MJN228, (4-Methylpiperazin-1-yl)(5-nitro-3-phenyl-1H-indol-2-yl)methanone]
SILAC ratio, Aldh3a2 ([1]; competitor 10 μM): 1.2 | SILAC ratio, Aldh3a2 ([1]; competitor 25 μM): 1.8 | SILAC ratio, Aldh3a2 ([1]; competitor 50 μM): 1.7 | SILAC ratio, Aldh3a2 ([1]; competitor 100 μM): 2.1 | SILAC ratio Abcd3 ([2]; competitor 10 μM): 1.2 | SILAC ratio Abcd3 ([2]; competitor 25 μM): 1.5 | SILAC ratio Abcd3 ([2]; competitor 50 μM): 1.3 | SILAC ratio Abcd3 ([2]; competitor 100 μM): 1.2 | SILAC ratio Eif3e ([3]; competitor 10 μM): 1.1 | SILAC ratio Eif3e ([3]; competitor 25 μM): 1.1 | SILAC ratio Eif3e ([3]; competitor 50 μM): 1.0 | SILAC ratio Eif3e ([3]; competitor 100 μM): 1.0 | SILAC ratio, Ktn1 ([4]; competitor 10 μM): 1.0 | SILAC ratio, Ktn1 ([4]; competitor 25 μM): 1.4 | SILAC ratio, Ktn1 ([4]; competitor 100 μM): 1.2 | SILAC ratio, Bri3bp ([5]; competitor 10 μM): 1.3 | SILAC ratio, Bri3bp ([5]; competitor 25 μM): 1.5 | SILAC ratio, Bri3bp ([5]; competitor 50 μM): 1.4 | SILAC ratio, Bri3bp ([5]; competitor 100 μM): 2.1 | SILAC ratio Slc25a1 ([6]; competitor 10 μM): 1.2 | SILAC ratio Slc25a1 ([6]; competitor 25 μM): 1.1 | SILAC ratio Slc25a1 ([6]; competitor 50 μM): 1.5 | SILAC ratio Slc25a1 ([6]; competitor 100 μM): 1.5 | SILAC ratio Atp5l ([7]; competitor 10 μM): 1.5 | SILAC ratio Atp5l ([7]; competitor 25 μM): 1.5 | SILAC ratio Atp5l ([7]; competitor 50 μM): 1.4 | SILAC ratio Atp5l ([7]; competitor 100 μM): 1.3

C=CCN(C)CCCCCCOc1ccc(C(=O)c2ccc(Br)cc2)c(F)c1 [Ro 48-8071, reference compound]
SILAC ratio, Aldh3a2 ([1]; competitor 25 μM): 1.3 | SILAC ratio Abcd3 ([2]; competitor 25 μM): 0.9 | SILAC ratio Eif3e ([3]; competitor 25 μM): 0.8 | SILAC ratio, Ktn1 ([4]; competitor 25 μM): 0.8 | SILAC ratio, Bri3bp ([5]; competitor 25 μM): 1.1 | SILAC ratio Slc25a1 ([6]; competitor 25 μM): 1.0 | SILAC ratio Atp5l ([7]; competitor 25 μM): 1.0
